According to patent publication US6589970B2, “6-(aryl-amido or aryl-amidomethyl)-naphthalen-2-yloxy-acidic derivatives as inhibitors of plasminogen activator inhibitor type-1 (PAI-1)” (Wyeth, priority 2001, dated 2003):
Counter-ions that a name gives are not always drawn.

What was measured:
[1] = molecular target: T1, recombinant human plasminogen activator inhibitor-1 (PAI-1) (Homo sapiens, UniProt P05121); test: Primary Screen for the PAI-1 Inhibition; format: biochemical; details: for inhibition at 25 µM: 25 μM test compound, read-out: % Inhib. 25 μM; for inhibition at 100 µM: 100 μM test compound, read-out: % Inhib. 100 μM
T1 construct: purchased Molecular Innovations, Royal Oak, Mich
Method: (§1) Test compounds are dissolved in DMSO at a final concentration of 10 mM, then diluted 100× in physiologic buffer. The inhibitory assay is initiated by the addition of the test compound (1-100 μM final concentration, maximum DMSO concentration of 0.2%) in a pH 6.6 buffer containing 140 nM recombinant human plasminogen activator inhibitor-1 (PAI-1; Molecular Innovations, Royal Oak, Mich.). Following a 1 hour incubation at room temperature, 70 nM of recombinant human tissue plasminogen activator (tPA) is added, and the combination of the test compound, PAI-1 and tPA is incubated for an additional 30 minutes. Following the second incubation, Spectrozyme-tPA (American Diagnostica, Greenwich, Conn.), a chromogenic substrate for tPA, is added and absorbance read at 405 nm at 0 and 60 minutes. Relative PAI-1 inhibition is equal to the residual tPA activity in the presence of the test compound and PAI-1. Control treatments include the complete inhibition of tPA by PAI-1 at the molar ratio employed (2:1), and the absence of any effect of the test compound on tPA alone.

[2] = molecular target: T1, recombinant human plasminogen activator inhibitor-1 (PAI-1); test: Modification of the Primary Screen for the PAI-1 Inhibition (IC50); format: biochemical
Method: as §1

human PAI-1 = human PAI-1 (Homo sapiens, UniProt P05121); test: Assay for Determining IC50 of Inhibition of PAI-1 (Antibody Assay); format: biochemical; details: active PAI-1 bound to tPA-coated plate
Method: This assay is based upon the non-SDS dissociable interaction between tPA and active PAI-1. Assay plates are initially coated with human tPA (10 μg/ml). The test compounds are dissolved in DMSO at 10 mM, then diluted with physiologic buffer (pH 7.5) to a final concentration of 1-50 μM. The test compounds are incubated with human PAI-1 (50 ng/ml) for 15 minutes at room temperature. The tPA-coated plate is washed with a solution of 0.05% Tween 20 and 0.1% BSA, then the plate is blocked with a solution of 3% BSA. An aliquot of the test compound/PAI-1 solution is then added to the tPA-coated plate, incubated at room temperature for 1 hour, and washed. Active PAI-1 bound to the plate is assessed by adding an aliquot of a 1:1000 dilution of the 33B8 monoclonal antibody against human PAI-1, and incubating the plate at room temperature for 1 hour (Molecular Innovations, Royal Oak, Mich. The plate is again washed, and a solution of goat anti-mouse IgG-alkaline phosphatase conjugate is added at a 1:50,000 dilution in goat serum. The plate is incubated 30 minutes at room temperature, washed, and a solution of alkaline phosphatase substrate is added. The plate is incubated 45 minutes at room temperature, and color development is determined at OD405nm. The quantitation of active PAI-1 bound to tPA at varying concentrations of the test compound is used to determine the IC50. Results are analyzed using a logarithmic best-fit equation. The assay sensitivity is 5 ng/ml of human PAI-1 as determined from a standard curve ranging from 0-100 ng/ml.

human PAI-1, sequence (P05121 24-402): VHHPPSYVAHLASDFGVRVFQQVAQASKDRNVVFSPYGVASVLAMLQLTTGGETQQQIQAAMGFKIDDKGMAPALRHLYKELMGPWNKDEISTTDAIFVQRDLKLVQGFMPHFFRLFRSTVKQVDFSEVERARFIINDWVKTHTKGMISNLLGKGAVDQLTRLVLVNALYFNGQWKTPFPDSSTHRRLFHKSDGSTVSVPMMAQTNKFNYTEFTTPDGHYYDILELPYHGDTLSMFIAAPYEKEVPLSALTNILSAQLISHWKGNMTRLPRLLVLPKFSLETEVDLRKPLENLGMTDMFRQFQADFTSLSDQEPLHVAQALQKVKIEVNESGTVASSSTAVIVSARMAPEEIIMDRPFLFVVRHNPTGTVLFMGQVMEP
T1 sequence (P05121 24-402): as above

SMILES | inhibition at 25 µM [1] [%] | inhibition at 100 µM [1] [%] | IC50 [2] [µM] | IC50 (human PAI-1) [µM] | melting point [°C]
CCCCc1oc2ccccc2c1C(=O)Nc1ccc2c(Br)c(OCC(=O)O)ccc2c1 [Example 6, {1-Bromo-6-[(2-butyl-benzofuran-3-carbonyl)-amino]-naphthalen-2-yloxy}-acetic acid sodium salt] | 43 | 67 | 18.3 |  | 
CCCCc1oc2ccccc2c1C(=O)NCc1ccc2cc(OCc3nnn[nH]3)ccc2c1 [Example 8, 2-Butyl-benzofuran-3-carboxylic acid [6-(1H-tetrazol-5-ylmethoxy)-naphthalen-2-ylmethyl]-amide sodium salt] | 13 | 71 | 22.9 |  | 
Cc1oc(-c2ccc(Cl)cc2)cc1C(=O)NCc1ccc2cc(OCC(=O)O)ccc2c1 [Example 10, [6-({[5-(4-Chloro-phenyl)-2-methyl-furan-3-carbonyl]-amino}-methyl)-naphthalen-2-yloxy]-acetic acid] | 7 | 53 | 25.2 |  | 
CCCCc1oc2ccccc2c1C(=O)NCc1ccc2c(-c3ccc(OC)cc3)c(OC(Cc3ccccc3)C(=O)[O-])ccc2c1.[Na+] (stereo not shown) [Example 30, Sodium; 2-[6-{[(2-Butyl-benzofuran-3-carbonyl)-amino]-methyl}-1-(4-methoxy-phenyl)-naphthalen-2-yloxy]-3-phenyl-propionate] | 38 | 91 |  | 44.9 | 138 to 142
CCc1oc2ccccc2c1C(=O)N(C)Cc1ccc2c(Br)c(OCc3nnn[nH]3)ccc2c1 [Example 32, 2-Ethyl-benzofuran-3-carboxylic acid [5-bromo-6-(1H-tetrazol-5-ylmethoxy)-naphthalen-2-ylmethyl]-methyl-amide] | 1 | 70 |  | 25.9 | 
CCCc1c(C(=O)N(C)Cc2ccc3c(Br)c(OCc4nnn[nH]4)ccc3c2)cnn1-c1ccccc1 [Example 33, 1-Phenyl-5-propyl-1H-pyrazole-4-carboxylic acid [5-bromo-6-(1H-tetrazol-5-ylmethoxy)-naphthalen-2-ylmethyl]-methyl-amide] | 59 | 94 |  | 31.1 | 75 to 85
CN(Cc1ccc2c(Br)c(OCc3nnn[nH]3)ccc2c1)C(=O)c1cn(Cc2ccccc2)c2ccccc12 [Example 34, 1-Benzyl-1H-indole-3-carboxylic acid [5-bromo-6-(1H-tetrazol-5-ylmethoxy)-naphthalen-2-ylmethyl]-methyl-amide] | 34 | 81 |  | 19.3 | 197 to 198
CN(Cc1ccc2c(Br)c(OCc3nnn[nH]3)ccc2c1)C(=O)c1cn(C)c2ccccc12 [Example 37, 1-Methyl-1H-indole-3-carboxylic acid [5-bromo-6-(1H-tetrazol-5-ylmethoxy)-naphthalen-2-ylmethyl]-methyl-amide] | 52 | 96 |  | 20.6 | 227 to 228
CCc1oc2ccccc2c1C(=O)N(Cc1ccccc1)Cc1ccc2c(Br)c(OCc3nnn[nH]3)ccc2c1 [Example 50, 2-Ethyl-benzofuran-3-carboxylic acid benzyl-[5-bromo-6-(1H-tetrazol-5ylmethoxy)-naphthalen-2-ylmethyl)-amide] | 56 | 61 |  | 35.7 | 
CCCCN(Cc1ccc2c(Br)c(OCc3nnn[nH]3)ccc2c1)C(=O)c1c(C)oc2ccccc12 [Example 52, 2-Methyl-benzofuran-3-carboxylic acid [5-bromo-6-(1H-tetrazol-5-ylmethoxy)-naphthalen-2-ylmethyl]-butyl-amide] | 44 | 81 |  | 20.8 | 204 to 206
CCCCc1oc2ccccc2c1C(=O)N(Cc1ccccc1)Cc1ccc2c(Br)c(OC(Cc3ccccc3)C(=O)O)ccc2c1 (stereo not shown) [Example 68, 2-(6-{[Benzyl-(2-butyl-benzofuran-3-carbonyl)-amino]-methyl}-1-bromo-naphthalen-2-yloxy)-3-phenyl-propionic acid] | 54 | 84 |  | 20 | 

Next, values leading:

inhibition at 25 µM [1] [%] | inhibition at 100 µM [1] [%] | IC50 [2] [µM] | IC50 (human PAI-1) [µM] | melting point [°C] | SMILES
53 | 92 |  | 15.7 |  | CCCCc1oc2ccccc2c1C(=O)NCc1ccc2c(Br)c(OC(Cc3ccccc3)C(=O)O)ccc2c1 (stereo not shown) [Example 18, 2-(1-Bromo-6-{[(2-butyl-benzofuran-3-carbonyl)-amino]-methyl}-naphthalen-2-yloxy)-3-phenyl-propionic acid]
26 | 58 |  | 15.8 | 242 to 244 | Cc1oc2ccccc2c1C(=O)NCc1ccc2c(Br)c(OCc3nnn[nH]3)ccc2c1 [Example 20, 2-Methyl-benzofuran-3-carboxylic acid [5-bromo-6-(1H-tetrazol-5-ylmethoxy)-naphthalen-2-ylmethyl]-amide]
36 | 54 |  | 5.08 | 235 to 238 | CCc1oc2ccccc2c1C(=O)NCc1ccc2c(Br)c(OCc3nnn[nH]3)ccc2c1 [Example 21, 2-Ethyl-benzofuran-3-carboxylic acid [5-bromo-6-(1H-tetrazol-5-yl methoxy)-naphthalen-2-ylmethyl]-amide]
54 | 72 |  | 6.92 |  | Cc1oc2ccccc2c1C(=O)N(Cc1ccccc1)Cc1ccc2c(Br)c(OCc3nnn[nH]3)ccc2c1 [Example 49, 2-Methyl-benzofuran-3-carboxylic acid benzyl-[5-bromo-6-(1H-tetrazol-5-ylmethoxy)-naphthalen-2-ylmethyl]-amide]
40 | 60 |  | 13.6 |  | CN(Cc1ccc2c(Br)c(OC(Cc3ccccc3)C(=O)O)ccc2c1)C(=O)c1ccc(Oc2cc(Cl)cc(Cl)c2)o1 (stereo not shown) [Example 64, 2-[1-Bromo-6-({[5-(3,5-dichloro-phenoxy)-furan-2-carbonyl]-methyl-amino}-methyl)-naphthalen-2-yloxy]-3-phenyl-propionic acid]
46 | 88 |  | 14.6 |  | CN(Cc1ccc2c(Br)c(OC(Cc3ccccc3)C(=O)O)ccc2c1)C(=O)c1cc(C(C)(C)C)cc(C(C)(C)C)c1 (stereo not shown) [Example 65, 2-(1-Bromo-6-{[(3,5-di-tert-butyl-benzoyl)-methyl-amino]-methyl}-naphthalen-2-yloxy)-3-phenyl-propionic acid]
59 | 66 |  | 13.5 |  | O=C(O)C(Cc1ccccc1)Oc1ccc2cc(CN(Cc3ccccc3)C(=O)c3ccc(Oc4cc(Cl)cc(Cl)c4)o3)ccc2c1Br (stereo not shown) [Example 67, 2-[6-({Benzyl-[5-(3,5-dichloro-phenoxy)-furan-2-carbonyl]-amino}-methyl)-1-bromo-naphthalen-2-yloxy]-3-phenyl-propionic acid]
55 | 92 |  | 16.8 |  | CC(C)(C)c1cc(C(=O)N(Cc2ccccc2)Cc2ccc3c(Br)c(OC(Cc4ccccc4)C(=O)O)ccc3c2)cc(C(C)(C)C)c1 (stereo not shown) [Example 69, 2-(6-{[Benzyl-(3,5-di-tert-butyl-benzoyl)-amino]-methyl}-1-bromo-naphthalen-2-yloxy)-3-phenyl-propionic acid]
